Each structure is given as a SMILES string.

The text below walks through data of patent publication US11691990B2, “Salts of compounds and crystals thereof” (Eisai R&D Management Co., Ltd., priority 2018, dated 2023).

The subject of one experiment is CT26 tumor cells. Put plainly: CT26 dual tumor model (mouse colon cancer model). The experiment is classed as in vivo. Conditions: I.T. single dose, study B. As to the method:
For study A, treatment was started 5 days (1.25 mg/kg, 2.5 mg/kg and 5 mg/kg) after the tumor implantation, when the average tumors reached approximately 100 mm^3. For study B, treatment was started 8 days (0.6 mg/kg, and 10 mg/kg) after the tumor implantation, when the average tumors reached approximately 120 mm^3. The treatment scheme is described in Table 5 and Table 6.
All the mice in the study have two subcutaneous CT26 tumors. The “treated tumor” indicates the tumor with compound direct administration, while “untreated tumor” indicates the tumor without direct compound administration. Tumor volume was followed throughout the experiment. Tumor volume is measured two times weekly after the start of treatment. Tumor burden is calculated from caliper measurements by the formula for the volume of a prolate ellipsoid (L×W^2)/2 where L and W are the respective orthogonal length and width measurements (mm).

The test system of another experiment is primary human PBMC. Put plainly: Ex vivo human PBMC stimulation assay, IFNβ protein. Conditions: 24 hours, average of five donors. The experiment is classed as cell-based. On the procedure:
Human blood from 5 healthy donors was collected using 10.0 mL BD Vacutainer Sodium heparin tubes (cat #367874). Peripheral blood mononuclear cell (PBMC) isolation was done using SIGMA ACCUSPIN 50 ml Tubes (cat #A2055) and sigma ACCUSPIN System-HISTOPAQUE-1077 (cat #A7054) using protocol provided by manufacturer. […] PBMC were counted and finally suspended at 1×10e6/ml in RPMI (corning cat #10-041-CV) supplemented with 10% fetal bovine serum (FBS) (Gibco cat #20140.79). 1 ml of cell (1×10e6) were transferred into Falcon 5 mL Round Bottom Polypropylene Test Tube (cat #352063) and stimulated with different concentrations ([…]) for 24 hours in 5% CO2 incubator at 37° C. After 24 hours of incubation the tubes were centrifuged at 1400 rpm for 5 minutes and supernatants were harvested. Supernatant were stored in −80° C. for subsequent IFN measurement. IFNβ measurement was done using Human IFN-β Base Kit (Meso Scale Diagnostics cat #K151ADA) and protocol provided by manufacturer was used. IFN-beta estimation was done by reading assay plate at MESO SECTOR Imager 2400 and using MSD Discovery Workbench 4.0 program. After 24 hours IFNβ protein was analyzed. […] Results shown in Table 3 reflect an average of measurements conducted using five different donors.

As to `O=[P@]1(S)OC[C@H]2O[C@@H]3[C@H](F)[C@@H]2O[P@](=O)(S)OC[C@H]2O[C@H]([C@H](F)[C@@H]2O1)n1cnc2c(ncnc21)NC/C=C/CNc1ncnc2c1ncn23` [Compound (1a), (1R,3R,15E,28R,29R,30R,31R,34R,36R,39S,41R)-29,41-Difluoro-34,39-bis(sulfanyl)-2,33,35,38,40,42-hexaoxa-4,6,9,11,13,18,20,22,25,27-decaaza-34λ^5,39λ^5-diphosphaoctacyclo[28.6.4.1^3,36.1^28,31.0^4,8.0^7,12.0^19,24.0^23,27]dotetraconta-5,7,9,11,15,19,21,23,25-nonaene-34,39-dione], in the experiment on CT26 tumor cells (0.6 mg/kg), the “cure rate, treated tumors” value is 20%. Besides, in the experiment with CT26 tumor cells (10 mg/kg), the “animals cured of treated tumor at the end of study” value came to 100%. In addition, the “curative effects, untreated tumors” value in the experiment with CT26 tumor cells (10 mg/kg) is reported as 80%. Besides, the IFNβ was 21.3 ± 17.8 pg/mL in the experiment with primary human PBMC (0.1 μM), 227.5 ± 62.4 pg/mL with primary human PBMC (1 μM) and 540.2 ± 215.0 pg/mL with primary human PBMC (10 μM).
